Entries after “also recorded” stand apart in the source; their conditions may differ. Where two headings read alike, the source gives them in different places.
How the values were obtained:
[1] = biological target: T1, CB1 receptor (Rattus norvegicus, UniProt P20272); assay: CB1 receptor binding; conditions: for Ki: first value of CB1/CB2 cell
[2] = biological target: T2, CB2 receptor (Homo sapiens, UniProt P34972); assay: CB2 receptor binding; conditions: for Ki: second value of CB1/CB2 cell
[3] = tested on: female Sabra mice; assay: Intestinal motility (defecation, number of fecal pellets); format: in vivo; conditions: 20 mg/kg i.p.; for Inhibition of Intesitinal Motility (% MPE): defecation in open field 8 min, normalized, * = P<0.05 vs vehicle; for inhibition of defecation / intestinal motility, in words: 60 minutes after injection
Experimental: (§1) Defecation was measured as the number of fecal pellets voided in the open field. In some experiments (as indicated below), fecal pellets and body temperature were assessed for a prolonged period (3 hr).

[4] = tested on: female Sabra mice; assay: Tetrad: rearing (vertical movements) in an open field; format: in vivo; conditions: 20 mg/kg i.p., open field 8 min; normalized; * = P<0.05 vs vehicle
Experimental: (§2) Mice were injected with antagonist 90 minutes before testing and/or with agonist 60 minutes before testing in a series of four assays which reflect central cannabinoid activity [Martin (1991) id. ibid.; modified by Fride, E. and R. Mechoulam (1993) id. ibid.]. This “tetrad” consists of, consecutively, ambulation and rearing in an open field (8 minutes), immobility on an elevated ring of 5 cm diameter (4 minutes), rectal temperature (Yellow

[5] = tested on: female Sabra mice; assay: Tetrad: ambulation (horizontal movements) in an open field; format: in vivo; conditions: 20 mg/kg i.p., open field 8 min, 30 or 60 min after injection; normalized; * = P<0.05 vs vehicle
Experimental: as §2

[6] = tested on: female Sabra mice; assay: Tetrad: catalepsy (immobility) on an elevated ring; format: in vivo; conditions: 20 mg/kg i.p., elevated ring 4 min; normalized; * = P<0.05 vs vehicle
Experimental: as §2

[7] = tested on: female Sabra mice; assay: Hypothermia (rectal temperature); format: in vivo; conditions: 20 mg/kg i.p., * = P<0.05 vs vehicle
Experimental: as §2, §1

[8] = tested on: female Sabra mice; assay: Hot plate analgesia (centrally mediated pain); format: in vivo; conditions: 20 mg/kg i.p., hot plate 55° C., max 45 sec; normalized; * = P<0.05 vs vehicle
Experimental: Pain perception on a hot plate, is considered to be mediated by a central mechanism whereas the second, late phase of the response to an implantar injection of formalin reflects inflammatory pain mechanisms [Tjolsen, A. and Hole (1997) id. ibid.].
Thus, central pain perception was assessed by the analgesic response on a hot plate (55° C., Columbus Instruments, OH, USA). Peripheral pain was measured by the response to implantar injection of formalin (4%) 45 minutes after injection of the drug.

[9] = tested on: arachidonic acid-induced ear inflammation in the mouse; assay: Arachidonic acid induced inflammation of the external ear; format: in vivo; conditions: for inhibition of arachidonic acid-induced ear inflammation, in words: i.p., 10 to 40 mg/kg, ear thickness every 15 minutes for 90 minutes
Experimental: Ear inflammation was measured by assessing ear tissue swelling after topical application of arachidonic acid, as described previously [Hanus (1999) id. ibid.]. Briefly, at various times after i.p. drug injections, arachidonic acid was applied to the inner surface of one ear (4.5 mg dissolved in […] ethanol). The opposite ear served as control (5 ethanol). Ear thickness was determined (in 0.01-mm units) by using a dial thickness gauge (Mitutoyo, Japan) every 15 minutes for 90 minutes, starting immediately after arachidonic acid application.

[10] = tested on: female Sabra mice; assay: Intestinal motility after antagonist pre-treatment (SR141716A, SR144528, capsazepine); format: in vivo
Experimental: (SR1, 1 mg/kg). SR1 was injected (i.p.) 30 minutes before the agonist. 60 minutes after (+)CBD-DMH the number of fecal pellets was recorded.
(SR2, 1 mg/kg). SR2 was injected (i.p.) 30 minutes before the agonist. 60 minutes after (+)-CBD-DMH the number of fecal pellets was recorded.
as §2, §1

[11] = tested on: female Sabra mice; assay: Tetrad overall (central cannabinoid activity); format: in vivo; conditions: 20 mg/kg i.p., tested 60 minutes later
Experimental: Central activity of the compounds of the invention was assessed in the “tetrad”, which is a series of assays commonly used to measure central cannabimimmetic effects [Martin, B. R. et al. (1991) Pharmacol. Biochem. Behav. 40(3): 471-8; Fride, E. and C. Sanudo-Pena (2002) id. ibid.]. Three parameters for peripheral activity were used. Since gastrointestinal transit is regulated locally in the periphery rather than by centrally located CB1 receptors [Izzo (2000) id. ibid.; Landi (2002) id. ibid.], intestinal motility was one of the parameters used, and peripheral cannabinoid effects was measured as rates of defecation (see Example 29).
as §2

[12] = tested on: CB1−/− receptor knockout mice; assay: Intestinal motility in CB1−/− receptor knockout mice; format: in vivo; conditions: 20 mg/kg i.p., defecation rate recorded for 3 hours
Experimental: Female CB1−/− knockout mice were injected i.p. with (+)-7-OH-CBD-DMH, (+)-CBD-DMH or Δ^9-THC (20 mg/kg). Intestinal motility (defecation rate) was recorded for a period of 3 hours.
(§3) Female Sabra mice (2-3 months of age) were purchased from Harlan, Israel. Breeding pairs of CB1−/− receptor knockout mice were provided by Prof. A. Zimmer, University Clinic Bonn, Germany.
as §1

[13] = tested on: CB1−/− receptor knockout mice; assay: Central effects in CB1−/− receptor knockout mice; format: in vivo; conditions: not shown
Experimental: as §3, §2

[14] = biological target: T2, CB2 receptor; conditions: cited from earlier work
[15] = biological target: T1, CB1 receptor; conditions: cited from earlier work
[16] = tested on: female Sabra mice; conditions: Hanus (1999); antagonized by SR144528, not by SR141716A; cited from earlier work

T2 sequence (P34972 whole entry): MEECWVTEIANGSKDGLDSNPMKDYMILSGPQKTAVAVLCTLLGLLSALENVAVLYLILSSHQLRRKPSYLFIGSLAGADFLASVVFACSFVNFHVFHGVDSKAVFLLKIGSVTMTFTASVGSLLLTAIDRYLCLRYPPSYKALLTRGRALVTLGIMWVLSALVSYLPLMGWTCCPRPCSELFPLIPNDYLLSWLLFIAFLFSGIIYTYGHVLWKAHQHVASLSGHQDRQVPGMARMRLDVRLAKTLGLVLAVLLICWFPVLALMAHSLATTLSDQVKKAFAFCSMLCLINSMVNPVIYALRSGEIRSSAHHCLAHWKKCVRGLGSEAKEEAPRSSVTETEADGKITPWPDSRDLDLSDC
T1 sequence (P20272 whole entry): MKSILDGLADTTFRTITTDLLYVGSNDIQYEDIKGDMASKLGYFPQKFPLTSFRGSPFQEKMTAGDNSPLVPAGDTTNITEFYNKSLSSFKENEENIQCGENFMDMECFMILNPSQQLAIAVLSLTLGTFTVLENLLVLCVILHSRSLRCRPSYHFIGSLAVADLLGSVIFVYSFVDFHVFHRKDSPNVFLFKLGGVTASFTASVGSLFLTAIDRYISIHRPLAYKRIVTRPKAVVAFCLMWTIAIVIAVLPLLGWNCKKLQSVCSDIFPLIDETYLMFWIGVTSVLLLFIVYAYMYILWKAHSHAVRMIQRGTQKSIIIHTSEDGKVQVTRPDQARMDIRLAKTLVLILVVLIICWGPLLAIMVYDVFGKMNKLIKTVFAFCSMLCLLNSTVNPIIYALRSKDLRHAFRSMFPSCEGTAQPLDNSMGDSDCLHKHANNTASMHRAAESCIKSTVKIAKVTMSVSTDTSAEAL

With `C=C(C)C1CCC(C(=O)O)=CC1c1c(O)cc(CCCCC)cc1O` (single isomer, unassigned) [+COOH−CBD, 7-Nor-carboxy CBD] the Ki [1] was 0.0132 µM, the Ki [2] was 0.322 µM and the “Inhibition of Intesitinal Motility (% MPE)” value (“Inhibition … (% MPE)” for short) [3] was 100* % MPE. The “Vertical Movements (% MPE)” value [4] was 71 % MPE, the “Horizontal Movements (% MPE)” value [5] was 80 % MPE and the “Catalepsy (Freezing of Movement) (% MPE)” value [6] was 06 % MPE. The “Hypothermia (Δ-Body Temp.)” value [7] was −0.6 °C.

In the case of `C=C(C)C1CCC(CO)=CC1c1c(O)cc(CCCCC)cc1O` (single isomer, unassigned; (+)) [+70H−CBD, (+)-7-Hydroxy CBD], the Ki [1] is reported as 0.0053 µM, the “Analgesia (Hot Plate) (% MPE)” value [8] is reported as 77 % MPE and the Ki [2] is reported as 0.101 µM. For the same molecule, the “Inhibition … (% MPE)” value [3] was 89* % MPE, the “Vertical Movements (% MPE)” value [4] was 81 % MPE and the “Horizontal Movements (% MPE)” value [5] was 107 % MPE. For the same molecule, the “Catalepsy (Freezing of Movement) (% MPE)” value [6] was 0 % MPE and the “Hypothermia (Δ-Body Temp.)” value [7] was 0.3 °C.

With `C=C(C)C1CCC(CO)=CC1c1c(O)cc(C(C)(C)CCCCCC)cc1O` (single isomer, unassigned; (+)) [+70H−CBD−DMH, (+)-7-Hydroxy CBD-DMH] the “inhibition of arachidonic acid-induced ear inflammation, in words” value ([9]; listed as (+)7OH-CBD-DMH) was “effectively prevented ear inflammation”, the “inhibition of arachidonic acid-induced ear inflammation, in words” value ([9]; listed as (+)-7-OHCBD-DMH) was “inhibited ear inflammation” and the “reversal of inhibition of defecation by CB1 antagonist SR141716A” value ([10]; agonist 20 mg/kg, SR141716A 1 mg/kg i.p. 30 minutes before agonist) was “effectively antagonized”. For the same molecule, the “reversal of inhibition of defecation by CB2 antagonist SR144528” value ([10]; agonist 20 mg/kg, SR144528 1 or 3 mg/kg i.p. 30 minutes before agonist) was “not at all”, the “effect of VR1 antagonist capsazepine on inhibition of defecation” value ([10]; data not shown) was “did not affect” and the “central effects (tetrad), in words” value [11] was “very potent”. For the same molecule, the “central effects (tetrad), in words” value ([11]; listed as (+)-7-OH-CBD-DMH) was “had central effects in all assays of the tetrad”, the “central effects (tetrad), in words” value ([11]; listed as (+)-7OH-CBD-DMH) was “significant and consistent central activity” and the “Analgesia (Hot Plate) (% MPE)” value [8] was 100* % MPE. The “inhibition of defecation / intestinal motility, in words” value [3] was “completely blocked”, the “Inhibition … (% MPE)” value [3] was 100* % MPE and the “Vertical Movements (% MPE)” value [4] was 0* % MPE. For the same molecule, the “Horizontal Movements (% MPE)” value [5] was 01* % MPE, the “Catalepsy (Freezing of Movement) (% MPE)” value [6] was 95* % MPE and the “effect on intestinal motility in CB1−/− knockout mice” value ([12]; listed as (+)-7-OH-CBD-DMH) was “None of the drugs assessed ((+)-CBD-DMH, (+)-7-OH-CBD-DMH and Δ^9-THC had any effect; also recorded: no effects”. The “central effects in CB1−/− receptor knockout mice” value [13] was “None of the drugs assessed ((+)-CBD-DMH, (+)-7-OH-CBD-DMH and Δ^9-THC had any effect”, the “Hypothermia (Δ-Body Temp.)” value [7] was −5.2* ° C and the Kd ([14]; previously reported, Bisogno et al. 2001, read-out: affinity for the CB2 receptor (Kd)) was 0.044 µM. For the same molecule, the Ki ([14]; second value of CB1/CB2 cell, data from Bisogno et al., 2001, read-out: CB2 Receptor Binding (Ki)) was 0.044 µM, the Ki ([15]; first value of CB1/CB2 cell, data from Bisogno et al., 2001, read-out: CB1 Receptor Binding (Ki)) was 0.0025 µM and the Kd ([15]; previously reported, Bisogno et al. 2001, read-out: affinity for the CB1 receptor (Kd)) was 0.0025 µM.

For `C=C(C)C1CCC(C)=CC1c1c(O)cc(CCCCC)cc1O` (single isomer, unassigned; (+)) [+CBD, (+)-CBD], the “inhibition of arachidonic acid-induced ear inflammation, in words” value [9] was “had no effect”, the “CB1 receptor binding, in words” value [1] was “weakly binds” and the “central effects (tetrad), in words” value [11] was “had no central neither peripheral (intestinal motility) effects; also recorded: Lack of effects”. For the same molecule, the “Analgesia (Hot Plate) (% MPE)” value [8] was 13 % MPE, the “CB2 receptor binding, in words” value [2] was “weakly binds” and the “inhibition of defecation / intestinal motility, in words” value [3] was “had no central neither peripheral (intestinal motility) effects; also recorded: Lack of effects”. The “Inhibition … (% MPE)” value [3] was 13 % MPE, the “Vertical Movements (% MPE)” value [4] was 103 % MPE and the “Horizontal Movements (% MPE)” value [5] was 108 % MPE. For the same molecule, the “Catalepsy (Freezing of Movement) (% MPE)” value [6] was 05 % MPE and the “Hypothermia (Δ-Body Temp.)” value [7] was 0.5 °C.

For `C=C(C)C1CCC(C(=O)O)=CC1c1c(O)cc(C(C)(C)CCCCCC)cc1O` (single isomer, unassigned; (+)) [+COOH−CBD−DMH, (+)-7-Nor-carboxy CBD DMH], the Ki [1] was 0.0058 µM, the “Analgesia (Hot Plate) (% MPE)” value [8] was 09 % MPE and the Ki [2] was 0.156 µM. For the same molecule, the “Inhibition … (% MPE)” value [3] was 100* % MPE, the “Vertical Movements (% MPE)” value [4] was 100 % MPE and the “Horizontal Movements (% MPE)” value [5] was 102 % MPE. The “Catalepsy (Freezing of Movement) (% MPE)” value [6] was 0 % MPE and the “Hypothermia (Δ-Body Temp.)” value [7] was 0.2 °C.

In the case of `CCCCCCC(C)(C)c1cc(OC)c([C@@H]2C=C(CO)[C@@H]3C[C@H]2C3(C)C)c(OC)c1` [HU-308], the “inhibition of defecation (earlier report)” value [16] is given as “inhibited defecation”.

For `COc1ccc2c(c1)c(CC(=O)O)c(C)n2C(=O)c1ccc(Cl)cc1` [Indomethacin, reference compound], the “potency compared to indomethacin in ear inflammation, in words” value ([9]; (+)-CBD-DMH 40 or 10 mg/kg vs indomethacin 20 mg/kg) was “Equal potencies”.

With `CCCCCc1cc(O)c2c(c1)OC(C)(C)[C@@H]1CCC(C)=C[C@@H]21` [Δ^9−THC, Delta-9 tetrahydrocannabinol, reference compound] the “Analgesia (Hot Plate) (% MPE)” value [8] was 97* % MPE, the “Inhibition … (% MPE)” value [3] was 100* % MPE and the “Vertical Movements (% MPE)” value [4] was 12* % MPE. For the same molecule, the “Horizontal Movements (% MPE)” value [5] was 44* % MPE, the “Catalepsy (Freezing of Movement) (% MPE)” value [6] was 44* % MPE and the “effect on intestinal motility in CB1−/− knockout mice” value [12] was “None of the drugs assessed ((+)-CBD-DMH, (+)-7-OH-CBD-DMH and Δ^9-THC had any effect; also recorded: No significant effects”. For the same molecule, the “central effects in CB1−/− receptor knockout mice” value [13] was “None of the drugs assessed ((+)-CBD-DMH, (+)-7-OH-CBD-DMH and Δ^9-THC had any effect” and the “Hypothermia (Δ-Body Temp.)” value [7] was −2.1* ° C.

— patent US7884133B2, “Pharmaceutical compositions containing (+) cannabidioil and derivatives thereof and some such novel derivatives” (priority 2003, dated 2011)
